Test results taken from patent publication US20200253978A1, “HETEROCYCLICS AS INHIBITORS OF FIBROBLAST GROWTH FACTOR RECEPTOR” (ADVENT PHARMA CO. LTD., priority 2017, published 2020).

Experiments:
[1] = target: T1, BaF3 cells expressing Tel-FGFR-4 and luciferase (Homo sapiens, UniProt P22455); assay: BaF3 cellular growth inhibition assay, Tel-FGFR-4 and luciferase (Bright-Glo); assay type: cell-based; settings: BaF3 Tel-FGFR-4 cells, 2 days incubation, 50% growth inhibition vs DMSO
T1 construct: Luciferase is co-expressed as a viability reporter and is not part of the key; P41212 (Transcription factor ETV6)
Description: (§1) Compounds' inhibitory activities against FGFR-4 or FGFR-1 were measured in BaF3 cells expressing Tel-FGFR-4 and luciferase or Tel-FGFR-1 and luciferase, whose growth was dependent on FGFR-4 or FGFR-1 kinase but independent of IL-3. The cells were plated in 384-well plates in RPMI1640 with 10% FBS. Compounds were added as 11-point dilutions. Cell viability was determined by Bright-Glo luciferase assay (Promega) after cells were incubated with compounds for 2 days. The IC50 value was determined as the concentration for 50% growth inhibition compared to DMSO treated cells (A: IC50<0.1 μM; B: IC50 between 0.1 μM and 1 μM; C: IC50 between 1 μM and 10 μM).

[2] = target: T2, BaF3 cells expressing Tel-FGFR-1 and luciferase (Homo sapiens, UniProt P11362); assay: BaF3 cellular growth inhibition assay, Tel-FGFR-1 and luciferase (Bright-Glo); assay type: cell-based; settings: BaF3 Tel-FGFR-1 cells, 2 days incubation, 50% growth inhibition vs DMSO
T2 construct: Luciferase is co-expressed as a viability reporter and is not part of the key; P41212 (Transcription factor ETV6)
Description: as §1

T1 sequence (P22455 467-755 limits assumed): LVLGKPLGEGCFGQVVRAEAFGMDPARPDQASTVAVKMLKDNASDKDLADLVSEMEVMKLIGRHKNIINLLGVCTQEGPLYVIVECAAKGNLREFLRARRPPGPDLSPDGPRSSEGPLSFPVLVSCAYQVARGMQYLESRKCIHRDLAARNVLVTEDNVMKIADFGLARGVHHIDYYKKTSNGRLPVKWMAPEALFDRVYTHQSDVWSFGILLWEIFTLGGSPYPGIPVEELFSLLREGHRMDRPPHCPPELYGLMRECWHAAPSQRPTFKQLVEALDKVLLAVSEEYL
T2 sequence (P11362 478-767 limits assumed): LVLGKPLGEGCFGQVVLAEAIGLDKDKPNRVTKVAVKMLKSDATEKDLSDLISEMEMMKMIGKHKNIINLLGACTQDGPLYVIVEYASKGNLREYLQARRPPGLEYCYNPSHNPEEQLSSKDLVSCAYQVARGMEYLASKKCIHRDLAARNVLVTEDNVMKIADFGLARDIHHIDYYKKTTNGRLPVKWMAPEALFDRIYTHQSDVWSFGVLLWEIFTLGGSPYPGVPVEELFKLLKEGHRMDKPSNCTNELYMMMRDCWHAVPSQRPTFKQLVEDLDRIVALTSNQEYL

Compound	IC50 [1] [µM]	IC50 ([2]; numeric bounds) [µM]	IC50 ([2]; class symbols) [µM]
C=CC(=O)Nc1cc(N2CCN(CC)CC2)ccc1Nc1ccc2c(ccn2Cc2c(F)c(OC)cc(OC)c2F)n1 [Example 1, N-(2-((1-(2,6-difluoro-3,5-dimethoxybenzyl)-1H-pyrrolo[3,2-b]pyridin-5-yl)amino)-5-(4-ethylpiperazin-1-yl)phenyl)acrylamide]	0.1 to 1	> 3.3	
C=CC(=O)Nc1cc(N2CCN(CC)CC2)ccc1Nc1cc2cc(C(=O)c3c(F)c(OC)cc(OC)c3F)oc2cn1 [Example 3, N-(2-((2-(2,6-difluoro-3,5-dimethoxybenzoyl)furo[2,3-c]pyridin-5-yl)amino)-5-(4-ethylpiperazin-1-yl)phenyl)acrylamide]	< 0.1	> 10	
C=CC(=O)Nc1cc(N2CCN(CC)CC2)ccc1Nc1cc2cc(C(F)(F)c3c(F)c(OC)cc(OC)c3F)oc2cn1 [Example 8, N-(2-((2-((2,6-difluoro-3,5-dimethoxyphenyl)difluoromethyl)furo[2,3-c]pyridin-5-yl)amino)-5-(4-ethylpiperazin-1-yl)phenyl)acrylamide]	0.1 to 1	> 10	
C=CC(=O)Nc1cc(N2CCN(CC)CC2)ccc1Nc1cc2cc(C(=O)c3cc(OC)cc(OC)c3)oc2cn1 [Example 11, N-(2-((2-(3,5-dimethoxybenzoyl)furo[2,3-c]pyridin-5-yl)amino)-5-(4-ethylpiperazin-1-yl)phenyl)acrylamide]	0.1 to 1		1 to 10
C=CC(=O)N[C@H]1CCOC[C@H]1Nc1cc2cc(C(=O)c3c(F)c(OC)cc(OC)c3F)oc2cn1 [Example 12, N-((3S,4S)-3-((2-(2,6-difluoro-3,5-dimethoxybenzoyl)furo[2,3-c]pyridin-5-yl)amino)tetrahydro-2H-pyran-4-yl)acrylamide]	0.1 to 1	> 10	
C=CC(=O)Nc1cc(N2CCN(CC)CC2)ccc1Nc1cc2cc(C(=O)c3c(F)c(OC)cc(OC)c3F)sc2cn1 [Example 16, N-(2-((2-(2,6-difluoro-3,5-dimethoxybenzoyl)thieno[2,3-c]pyridin-5-yl)amino)-5-(4-ethylpiperazin-1-yl)phenyl)acrylamide]	< 0.1		1 to 10
C=CC(=O)Nc1cccc(C)c1Nc1cc2cc(C(=O)c3c(F)c(OC)cc(OC)c3F)oc2cn1 [Example 17, N-(2-((2-(2,6-difluoro-3,5-dimethoxybenzoyl)furo[2,3-c]pyridin-5-yl)amino)-3-methylphenyl)acrylamide]	< 0.1	> 10	
C=CC(=O)Nc1cc(N2CCN(CC)CC2)ccc1Nc1cc2cc(C(=O)c3c(F)c(OC)cc(OC)c3F)n(C)c2cn1 [Example 19, N-(2-((2-(2,6-difluoro-3,5-dimethoxybenzoyl)-1-methyl-1H-pyrrolo[2,3-c]pyridin-5-yl)amino)-5-(4-ethylpiperazin-1-yl)phenyl)acrylamide]	0.1 to 1		1 to 10
C=CC(=O)Nc1cc(N2CCN(CC)CC2)ccc1Nc1ncc2oc(C(=O)c3c(F)c(OC)cc(OC)c3F)cc2n1 [Example 20, N-(2-((6-(2,6-difluoro-3,5-dimethoxybenzoyl)furo[3,2-d]pyrimidin-2-yl)amino)-5-(4-ethylpiperazin-1-yl)phenyl)acrylamide]	< 0.1		1 to 10
C=CC(=O)Nc1cc(N2CCN(CC)CC2)ccc1Nc1cc2cc(C(=O)c3c(F)c(OC)cc(OC)c3F)[nH]c2cn1 [Example 21, N-(2-((2-(2,6-difluoro-3,5-dimethoxybenzoyl)-1H-pyrrolo[2,3-c]pyridin-5-yl)amino)-5-(4-ethylpiperazin-1-yl)phenyl)acrylamide]	0.1 to 1	> 3.3	
C=CC(=O)Nc1cc(N2CCN(CC)CC2)ccc1Nc1cc2c(C(=O)c3c(F)c(OC)cc(OC)c3F)c[nH]c2cn1 [Example 22, N-(2-((3-(2,6-difluoro-3,5-dimethoxybenzoyl)-1H-pyrrolo[2,3-c]pyridin-5-yl)amino)-5-(4-ethylpiperazin-1-yl)phenyl)acrylamide]	0.1 to 1		1 to 10
C=CC(=O)Nc1cccc(C)c1Nc1ncc2oc(C(=O)c3c(F)c(OC)cc(OC)c3F)cc2n1 [Example 23, N-(2-((6-(2,6-difluoro-3,5-dimethoxybenzoyl)furo[3,2-d]pyrimidin-2-yl)amino)-3-methylphenyl)acrylamide]	< 0.1	> 6.65	
C=CC(=O)Nc1cccc(C)c1Nc1cc2cc(C(=O)c3c(F)c(OC)cc(OC)c3F)sc2cn1 [Example 24, N-(2-((2-(2,6-difluoro-3,5-dimethoxybenzoyl)thieno[2,3-c]pyridin-5-yl)amino)-3-methylphenyl)acrylamide]	< 0.1	> 6.65	

Now from value to compound:

IC50 [1] [µM]	IC50 ([2]; numeric bounds) [µM]	IC50 ([2]; class symbols) [µM]	Compound
0.1 to 1	> 3.3		C=CC(=O)Nc1cccc(C(F)(F)F)c1Nc1cc2cc(C(=O)c3c(F)c(OC)cc(OC)c3F)oc2cn1 [Example 25, N-(2-((2-(2,6-difluoro-3,5-dimethoxybenzoyl)furo[2,3-c]pyridin-5-yl)amino)-3-(trifluoromethyl)phenyl)acrylamide]
< 0.1	> 5.1		C=CC(=O)Nc1cccc(Cl)c1Nc1cc2cc(C(=O)c3c(F)c(OC)cc(OC)c3F)oc2cn1 [Example 26, N-(3-chloro-2-((2-(2,6-difluoro-3,5-dimethoxybenzoyl)furo[2,3-c]pyridin-5-yl)amino)phenyl)acrylamide]
0.1 to 1	> 3.3		C=CC(=O)Nc1cc(N2CCN(CC)CC2)ccc1Nc1cc2cc(C(=O)Nc3c(F)c(OC)cc(OC)c3F)oc2cn1 [Example 32, 5-((2-acrylamido-4-(4-ethylpiperazin-1-yl)phenyl)amino)-N-(2,6-difluoro-3,5-dimethoxyphenyl)furo[2,3-c]pyridine-2-carboxamide]
< 0.1	> 3.3		CCN1CCN(c2ccc(Nc3cc4cc(C(=O)c5c(F)c(OC)cc(OC)c5F)oc4cn3)c(NC(=O)/C=C\Cl)c2)CC1 [Example 33, (Z)-3-chloro-N-(2-((2-(2,6-difluoro-3,5-dimethoxybenzoyl)furo[2,3-c]pyridin-5-yl)amino)-5-(4-ethylpiperazin-1-yl)phenyl)acrylamide]
1 to 10	> 10		C=CC(=O)N[C@H]1CCOC[C@H]1Nc1ncc2oc(C(O)c3c(F)c(OC)cc(OC)c3F)cc2n1 (stereo partly drawn) [Example 34, N-((3S,4S)-3-((6-((2,6-difluoro-3,5-dimethoxyphenyl)(hydroxy)methyl)furo[3,2-d]pyrimidin-2-yl)amino)tetrahydro-2H-pyran-4-yl)acrylamide]
< 0.1	> 10		C=CC(=O)N[C@H]1CCOC[C@H]1Nc1ncc2oc(C(=O)c3c(F)c(OC)cc(OC)c3F)cc2n1 [Example 35, N-((3S,4S)-3-((6-(2,6-difluoro-3,5-dimethoxybenzoyl)furo[3,2-d]pyrimidin-2-yl)amino)tetrahydro-2H-pyran-4-yl)acrylamide]
1 to 10	> 10		C=CC(=O)Nc1cc(N2CCN(CC)CC2)ccc1Nc1cc2c(O)c(C(=O)c3c(F)c(OC)cc(OC)c3F)oc2cn1 [Example 36, N-(2-((2-(2,6-difluoro-3,5-dimethoxybenzoyl)-3-hydroxyfuro[2,3-c]pyridin-5-yl)amino)-5-(4-ethylpiperazin-1-yl)phenyl)acrylamide]
0.1 to 1	> 10		C=CC(=O)N[C@H]1CCOC[C@H]1Nc1cc2cc(-c3c(Cl)c(OC)cc(OC)c3Cl)oc2cn1 [Example 37, N-((3S,4S)-3-((2-(2,6-dichloro-3,5-dimethoxyphenyl)furo[2,3-c]pyridin-5-yl)amino)tetrahydro-2H-pyran-4-yl)acrylamide]
